Laboratory results from patent US20070099259A1, “ELECTROCHEMICAL ASSAY FOR THE IDENTIFICATION OF MICROORGANISMS” (RAPID LABORATORY MICROSYSTEMS INC., priority 2003, published 2007).

Key:
[1] = system: Enterobacter aerogenes ATCC 13048e; test: Respiration assay (Example 1), electrochemical ferricyanide/DCIP mediator consumption; type: cell-based; details: effector 10 mM; for slope: 5 μM DCIP, 50 mM ferricyanide, 35° C.; for normalized slope: area normalized; for relative activity: buffer set as 100%
Description: (§1) The ferricyanide solution is added so that the final ferricyanide concentrations is 50 mM.
(§2) The bacterial suspensions were adjusted to a MacFarland Standard of 5.0 (5.0×10sup.8 cfu/mL) or an optical density of 1.2 measured at 625 nm and cell growth was stopped by cooling the bacterial suspension for a minimum of 15 min in an ice-bath.

[2] = system: Staphylococcus aureus ATCC 6538P; test: as above; type: cell-based; details: effector 10 mM; for slope: 5 μM DCIP, 50 mM ferricyanide, 35° C.; for normalized slope: area normalized; for relative activity: buffer set as 100%
Description: as §1, §2

[3] = system: P. vulgaris ATCC6380; test: Relative respiratory activity with 22 effectors (Example 3); type: cell-based, Proteus vulgaris; details: 5 μM DCIP, no effector = 100%, n = 20; for activity at 10000 µM: effector 10 mM, read-out: relative %-respiratory activity
Excerpt: (§3) In this example, each microorganism is subjected to 22 different effector compounds in addition to control measurements. […] For each microorganism, duplicate measurements were made of 22 different effector compounds. In addition, duplicate measurements were made a control test containing no effector compound. One additional measurement was made of a control solution containing the microorganism with ferricyanide but without effector or DCIP.
(§4) In this example, each normalized data set containing duplicate measurements for each of 22 effector compounds is referenced to the duplicate internal controls to allow batch-to-batch comparison. The obtained signals of charge per unit electrode area for the duplicate control measurements are averaged and set at 100% respiratory cycle activity. […] The data set used to generate pattern recognition plots consists of 5 replicate batches (each batch containing duplicate measurements for each of 22 effector compounds) for each cell culture (10 strains). This is used to generate a 50 (columns)×22 (rows) matrix. The matrix is imported into MATLAB (Version 6.0). Factor analysis is performed using the MATLAB Chemometric Toolbox (Version 2.3) and involves the generation of reduced eigenvectors to determine the optimal number of factors, examination of the resulting residuals plots for randomness, and the generation of scores for the first four principle components.

[4] = system: E. faecalis; test: as above; type: cell-based, Enterococcus faecalis; details: 5 μM DCIP, no effector = 100%, n = 20; for activity at 10000 µM: effector 10 mM, read-out: relative %-respiratory activity
Excerpt: as §3, §4

[5] = system: E. aerogenes ATCC13048e; test: as above; type: cell-based, Enterobacter aerogenes; details: 5 μM DCIP, no effector = 100%, n = 26; for activity at 10000 µM: effector 10 mM, read-out: relative %-respiratory activity
Excerpt: as §3, §4

[6] = system: E. coli B; test: as above; type: cell-based; details: for activity at 10000 µM: effector 10 mM, read-out: relative %-respiratory activity
Excerpt: as §3, §4

[7] = system: E. coli HB101; test: as above; type: cell-based; details: 5 μM DCIP, no effector = 100%, n = 18; for activity at 10000 µM: effector 10 mM, read-out: relative %-respiratory activity
Excerpt: as §3, §4

[8] = system: E. coli JM105; test: as above; type: cell-based; details: 5 μM DCIP, no effector = 100%, n = 10; for activity at 10000 µM: effector 10 mM, read-out: relative %-respiratory activity
Excerpt: as §3, §4

[9] = system: E. coli Neotype; test: as above; type: cell-based; details: 5 μM DCIP, no effector = 100%, n = 26; for activity at 10000 µM: effector 10 mM, read-out: relative %-respiratory activity
Excerpt: as §3, §4

[10] = system: P. aeruginosa; test: as above; type: cell-based, Pseudomonas aeruginosa; details: 5 μM DCIP, no effector = 100%, n = 18; for activity at 10000 µM: effector 10 mM, read-out: relative %-respiratory activity
Excerpt: as §3, §4

[11] = system: S. aureus ATCC6538P; test: as above; type: cell-based, Staphylococcus aureus; details: 5 μM DCIP, no effector = 100%, n = 20; for activity at 10000 µM: effector 10 mM, read-out: relative %-respiratory activity
Excerpt: as §3, §4

[12] = system: S. cerevisiae; test: as above; type: cell-based, Saccharomyces cerevisiae; details: 5 μM DCIP, no effector = 100%, n = 10; for activity at 10000 µM: effector 10 mM, read-out: relative %-respiratory activity
Excerpt: as §3, §4

[13] = system: Gram-positive bacteria; details: effector 1 mM instead of 1 mM glucose, relative to + DCIP
Description: The following steps are used for each test: (1) preheating for a fixed time (4 min) and a fixed temperature (35° C.) a 150 μL aliquot of buffer containing 1 mM glucose (glc) with or without 5 μM DCIP; (2) this is followed by the addition of 50 μL of the bacterial suspension to the sample for a fixed time (10 min) and at a fixed temperature (35° C.); (3) this is followed by the addition of the mediator (50 μL of 0.4 M potassium ferricyanide) for a fixed time (10 min) and at a fixed temperature (35° C.); and (4) measurement of current at a fixed voltage difference (100 mV) between two platinum electrodes for a fixed time (120 sec) at a fixed temperature (35° C.). The final ferricyanide concentration in the sample prior to reaction with the microorganism is 40 mM.
In this configuration the assay uses two platinum electrodes each having a surface area of approximately 0.03 cm^2. The measured current depends on the concentration of the least-concentrated species of the redox-couple in solution. […] The magnitude of the measured current indicates the quantity of the reduced mediator present in the assay solution. The measured current is integrated over time to produce a plot of total charge against time. The change in total charge is measured between 30 and 120 seconds after the potential is applied. […]

[14] = Klebsiella aerogenes, ATCC13048E
[15] = Escherichia coli, 5 μM DCIP, no effector = 100%, n = 10
[16] = Staphylococcus aureus, ATCC6538P

`CC(O)C(=O)O` (centres unmarked) [Lactic acid, lactic acid] was tested, and the slope [1] was 27.7 μC/min, the normalized slope [1] was 16.3 μC/min*mm^2 and the relative activity [1] was 169%. The slope [2] was 24.8 μC/min, the normalized slope [2] was 14.6 μC/min*mm^2 and the relative activity [2] was 275%. The activity at 10000 µM ([3]; Proteus vulgaris, ATCC6380) was 457%, the activity at 10000 µM ([4]; Enterococcus faecalis) was 118% and the activity at 10000 µM [5, 14] was 182%. The activity at 10000 µM [6, 15] was 192%, the activity at 10000 µM ([7]; Escherichia coli, HB101) was 171% and the activity at 10000 µM ([8]; Escherichia coli, JM105) was 303%. The activity at 10000 µM ([9]; Escherichia coli) was 126%, the activity at 10000 µM ([10]; Pseudomonas aeruginosa) was 122% and the activity at 10000 µM [11, 16] was 622%. It also gave an activity at 10000 µM ([12]; Saccharomyces cerevisiae) of 123%.

For `CC(=O)C(=O)O` [Pyruvic acid], the slope [1] was 23.4 μC/min, the normalized slope [1] was 13.7 μC/min*mm^2 and the relative activity [1] was 143%. It also gave a slope [2] of 14.8 μC/min, a normalized slope [2] of 8.7 μC/min*mm^2 and a relative activity [2] of 164%. The activity at 10000 µM ([3]; Proteus vulgaris, ATCC6380) was 344%, the activity at 10000 µM ([4]; Enterococcus faecalis) was 136% and the activity at 10000 µM [5, 14] was 209%. The activity at 10000 µM [6, 15] was 120%, the activity at 10000 µM ([7]; Escherichia coli, HB101) was 169% and the activity at 10000 µM ([8]; Escherichia coli, JM105) was 249%. For the same compound, the activity at 10000 µM ([9]; Escherichia coli) was 126%, the activity at 10000 µM ([10]; Pseudomonas aeruginosa) was 125% and the activity at 10000 µM [11, 16] was 313%. It also gave an activity at 10000 µM ([12]; Saccharomyces cerevisiae) of 109%.

`O=C(O)CCC(=O)O` [Succinate] was tested, and the relative %-respiratory activity ([3]; effector 3 mM) was 520%, the relative %-respiratory activity ([4]; effector 3 mM) was 87% and the relative %-respiratory activity ([5]; effector 3 mM) was 187%. The relative %-respiratory activity [6] was 134%, the relative %-respiratory activity ([7]; effector 3 mM) was 172% and the relative %-respiratory activity ([8]; effector 3 mM) was 287%. It also gave a relative %-respiratory activity ([9]; effector 3 mM) of 127%, a relative %-respiratory activity ([10]; effector 3 mM) of 102% and a relative %-respiratory activity ([11]; effector 3 mM) of 167%. The relative %-respiratory activity ([12]; effector 3 mM) was 108% and the “respiratory signals in the absence of 5 μM DCIP” value [13] was < 80%.

Work on `OC[C@H]1O[C@@](CO)(O[C@H]2O[C@H](CO)[C@@H](O)[C@H](O)[C@H]2O)[C@@H](O)[C@@H]1O` [Sucrose] yielded an activity at 20000 µM ([3]; Proteus vulgaris, ATCC6380, effector 20 mM) of 164%, an activity at 20000 µM ([4]; Enterococcus faecalis, effector 20 mM) of 465% and an activity at 20000 µM ([5]; Klebsiella aerogenes, ATCC13048E, effector 20 mM) of 188%. For the same compound, the activity at 20000 µM ([6]; Escherichia coli, effector 20 mM, 5 μM DCIP, no effector = 100%, n = 10) was 124%, the activity at 20000 µM ([7]; Escherichia coli, HB101, effector 20 mM) was 110% and the activity at 20000 µM ([8]; Escherichia coli, JM105, effector 20 mM) was 121%. It also gave an activity at 20000 µM ([9]; Escherichia coli, effector 20 mM) of 122%, an activity at 20000 µM ([10]; Pseudomonas aeruginosa, effector 20 mM) of 117% and an activity at 20000 µM ([11]; Staphylococcus aureus, ATCC6538P, effector 20 mM) of 290%. It also gave an activity at 20000 µM ([12]; Saccharomyces cerevisiae, effector 20 mM) of 161%.

`O=[N+]([O-])[O-].[K+]` [nitrate, potassium nitrate] showed a slope [1] of 3.7 μC/min, a normalized slope [1] of 2.2 μC/min*mm^2 and a relative activity [1] of 23%. The slope [2] was 6.9 μC/min, the normalized slope [2] was 4.1 μC/min*mm^2 and the relative activity [2] was 76%.
